The test deals with Acinetobacter baumannii ATCC17978. The test can be described thus: Antimicrobial susceptibility testing: 90% growth inhibitory concentration (IC90) determination, Iso-Sensitest broth. In kind it is cell-based. The method in brief:
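A. baumannii ATCC17978 grown in Iso-Sensitest broth across 10 compound concentrations at 35±2 °C.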

Where [1] appears, read: 90% growth inhibitory concentration, Acinetobacter baumannii ATCC17978, Iso-Sensitest broth, OD 600 nm over 16 h, read-out: ATCC17978 IC90.
[2] abbreviates: Acinetobacter baumannii, ATCC17978, 16 h, read-out: ATCC17978 IC90, 90% growth inhibitory concentration, Acinetobacter baumannii ATCC17978, Iso-Sensitest broth, OD 600 nm over 16 h.

Molecules are shown by their SMILES. Where a name gives a salt, the structure may show the parent alone. Read-outs that look alike come from different tables or passages of the source.

On to `Cc1cc(Nc2nccn3c(-c4ccc(OC(F)F)cc4)cnc23)ccc1C(=O)N1CCC(C(=O)N2CCNC(CO)C2)CC1` (stereo not shown) [Example 183, [4-[[3-[4-(difluoromethoxy)phenyl]imidazo[1,2-a]pyrazin-8-yl]amino]-2-methyl-phenyl]-[4-[3-(hydroxymethyl)piperazine-1-carbonyl]-1-piperidyl]methanone hydrochloride], for which the IC90 under setting [1] came out at 270 nM. `Cc1cc(Nc2nccn3c(-c4ccc(OC(F)F)cc4)cnc23)ccc1C(=O)N1CCN(C(=O)c2ccc(C(=O)O)cc2)CC1` [Example 280, 4-[4-[4-[[3-[4-(difluoromethoxy)phenyl]imi-dazo[1,2-a]pyrazin-8-yl]amino]-2-methylbenzoyl]piperazine-1-carbonyl]benzoic acid]: under setting [2], the IC90 amounted to 4500 nM.

Turning to `Cc1cc(Nc2nccn3c(-c4ccc(OC(F)F)cc4)cnc23)ccc1C(=O)N1CC[C@@H](C(=O)N2CCNCC2)[C@@H](O)C1` (racemic) [Example 530, [4-[[3-[4-(difluoromethoxy)phenyl]imi-dazo[1,2-a]pyrazin-8-yl]amino]-2-methylphenyl]-[rac-(3R,4R)-3-hydroxy-4-(piperazine-1-carbonyl)piperidin-1-yl]methanone; 2,2,2-trifluoroacetic acid], the IC90 under setting [1] was 630 nM. In the case of `COc1ccc(-c2cnc3c(Nc4ccc(C(=O)N5CCN(CC(C)O)CC5)c(C)c4)nccn23)cc1F` (stereo not shown) [Example 410, [4-[[3-(3-fluoro-4-methoxyphenyl)imidazo[1,2-a]pyrazin-8-yl]amino]-2-methylphenyl]-[4-(2-hydroxypropyl)piperazin-1-yl]methanone], the IC90 under setting [1] came out at 670 nM. Still for that read-out and setting: the figure for `COc1ccc(-c2cnc3c(Nc4ccc(C(=O)N5CCC(O)CC5)c(C)c4)nccn23)cc1` [Example 7, (4-hydroxypiperidin-1-yl)(4-((3-(4-methoxyphenyl)imidazo[1,2-a]pyrazin-8-yl)amino)-2-methylphenyl)methanone] is 660 nM.

For the compound `Cc1cc(Nc2nccn3c(-c4ccc(OC(F)F)cc4)cnc23)ccc1C(=O)N1CCN(C(=O)[C@@H]2CCNC[C@H]2O)CC1` [Example 503, [4-[[3-[4-(difluoromethoxy)phenyl]imi-dazo[1,2-a]pyrazin-8-yl]amino]-2-methylphenyl]-[4-[(3S,4R)-3-hydroxypiperidine-4-carbonyl]piperazin-1-yl]methanone], the IC90 under setting [2] amounted to 470 nM.

In the case of `COc1ccc(-c2cnc3c(Nc4ccc(C(=O)N5CCC(C(=O)N6CCOC(CN)C6)CC5)c(C)c4)nccn23)cc1F` (stereo not shown) [Example 39, (4-(2-(aminomethyl)morpholine-4-carbonyl)piperidin-1-yl)(4-((3-(3-fluoro-4-methoxyphenyl)imidazo[1,2-a]pyrazin-8-yl)amino)-2-methylphenyl)methanone hydrochloride], the IC90 under setting [1] was 260 nM. For `Cc1cc(Nc2nccn3c(-c4ccc(OC(F)F)cc4)cnc23)ccc1C(=O)N1CCN(C(=O)[C@H](C)N)CC1` [Example 226, (2S)-2-amino-1-[4-[4-[[3-4-(difluoromethoxy)phenyl]imidazo[1,2-a]pyrazin-8-yl]amino]-2-methyl-benzoyl]piperazin-1-yl]propan-1-one hydrochloride], the IC90 under setting [1] came out at 520 nM. Turning to `Cc1cc(Nc2nccn3c(-c4ccc(OC(F)F)cc4)cnc23)ccc1C(=O)N1CCOC2(CCNCC2)C1` [Example 379, [4-[[3-[4-(difluoromethoxy)phenyl]imi-dazo[1,2-a]pyrazin-8-yl]amino]-2-methylphenyl]-(1-oxa-4,9-diazaspiro[5.5]undecan-4-yl)methanone; hydrochloride], under setting [2], the IC90 turned out to be 2800 nM. The same measure, in the same setting: the value for `CCc1cc(Nc2nccn3c(-c4ccc(OCC#N)c(F)c4F)cnc23)ccc1C(=O)NCCNC(=O)[C@@H]1C[C@@H](O)CN1` [Example 457, (2S,4R)-N-[2-[[4-[[3-[4-(cyanomethoxy)-2,3-difluorophenyl]imidazo[1,2-a]pyrazin-8-yl]amino]-2-ethylbenzoyl]amino]ethyl]-4-hydroxypyrrolidine-2-carboxamide; formic acid] was 80 nM; that for `Cc1cc(Nc2nccn3c(-c4ccc(OC(F)F)cc4)cnc23)ccc1C(=O)N1CCN(C(=O)[C@@H](N)C(C)C)CC1` [Example 317, (2S)-2-amino-1-[4-[4-[[3-[4-(difluoromethoxy)phenyl]imi-dazo[1,2-a]pyrazin-8-yl]amino]-2-methylbenzyol]piperazin-1-yl]-3-methylbutan-1-one; hydrochloride] was 240 nM. Regarding `Cc1cc(Nc2nccn3c(-c4ccc(OC(F)F)cc4)cnc23)ccc1C(=O)N1CCC(C(=O)N2C[C@H](CO)[C@@H](O)[C@H](O)C2)CC1` [Example 33, (1-(4-((3-(4-(difluoromethoxy)phenyl)imidazo[1,2-a]pyrazin-8-yl)amino)-2-methylbenzoyl)piperidin-4-yl)((3R,4R,5R)-3,4-dihydroxy-5-(hydroxymethyl)piperidin-1-yl)methanone], the IC90 under setting [1] stood at 230 nM. On to `Cc1cc(Nc2nccn3c(-c4ccc(OC5CC5)c(Cl)c4)cnc23)ccc1C(=O)N1CCC(CN)CC1` [Example 117, [4-(aminomethyl)-1-piperidyl]-[4-[[3-[3-chloro-4-(cyclopropoxy)phenyl]imidazo[1,2-a]pyrazin-8-yl]amino]-2-methyl-phenyl]methanone formate], for which, under setting [1], the IC90 is 540 nM. For the compound `COc1ccc(-c2cnc3c(Nc4ccc(C(=O)N5CCN(C(=O)[C@H]6CCNC[C@@H]6O)CC5)c(C)c4)nccn23)c(F)c1F` (racemic) [Example 489, [4-[[3-(2,3-difluoro-4-methoxyphenyl)imidazo[1,2-a]pyrazin-8-yl]amino]-2-methylphenyl]-[4-[rac-(3R,4S)-3-hydroxypiperidine-4-carbonyl]piperazin-1-yl]methanone; hydrochloride], the IC90 under setting [2] came out at 270 nM. `Cc1cc(Nc2nccn3c(-c4ccc(OC(F)F)cc4)cnc23)ccc1C(=O)N1CCN(C(=O)N[C@@H](C)CN)CC1` [Example 491, N-[(2S)-1-aminopropan-2-yl]-4-[4-[[3-[4-(difluoromethoxy)phenyl]imi-dazo[1,2-a]pyrazin-8-yl]amino]-2-methylbenzoyl]piperazine-1-carboxamide]: the IC90 under setting [2] was 300 nM. Regarding `Cc1cc(Nc2nccn3c(-c4ccc(OC(F)F)cc4)cnc23)ccc1C(=O)N1CCC(Oc2ncccn2)CC1` [Example 12], the IC90 under setting [1] stood at 720 nM. Regarding `CNCCNC(=O)N1CCN(C(=O)c2ccc(Nc3nccn4c(-c5ccc(OC(F)F)cc5)cnc34)cc2C)CC1` [Example 524, 4-[4-[[3-[4-(difluoromethoxy)phenyl]imi-dazo[1,2-a]pyrazin-8-yl]amino]-2-methylbenzoyl]-N-[2-(methylamino)eth-yl]piperazine-1-carboxamide; hydrochloride], under setting [2], the IC90 turned out to be 470 nM. For the compound `Cc1cc(Nc2nccn3c(-c4ccc(OC(F)F)cc4)cnc23)ccc1C(=O)N1CCC(N2CCNC2=O)CC1` [Example 9, 1-(1-(4-((3-(4-(difluoromethoxy)phenyl)imidazo[1,2-a]pyrazin-8-yl)amino)-2-methylbenzoyl)piperidin-4-yl)imidazolidin-2-one], the IC90 under setting [1] stood at 410 nM. For the compound `COc1ccc(-c2cnc3c(Nc4ccc(C(=O)N5CCC(C(=O)NCCN)CC5)c(C)c4)nccn23)cc1F` [Example 393, N-(2-aminoethyl)-1-[4-[[3-(3-fluoro-4-methoxyphenyl)imidazo[1,2-a]pyrazin-8-yl]amino]-2-methylbenzoyl]piperidine-4-carboxamide; hydrochloride], the IC90 under setting [2] worked out at 340 nM. With `COc1ccc(-c2cnc3c(Nc4ccc(C(=O)N5CCN(C(=O)[C@@H]6C[C@@H](OC(=O)[C@@H](N)C(C)C)CN6)CC5)c(C)c4)nccn23)c(F)c1F` [Example 552, [(3R,5S)-5-[4-[4-[[3-(2,3-difluoro-4-methoxy-phenyl)imidazo[1,2-a]pyrazin-8-yl]amino]-2-methyl-benzoyl]piperazine-1-carbonyl]pyrrolidin-3-yl] (2S)-2-amino-3-methyl-butanoate], the IC90 under setting [2] worked out at 186 nM. The same measure, in the same setting: the figure for `Cc1cc(Nc2nccn3c(-c4ccc(OC(F)F)cc4)cnc23)ccc1C(=O)N1CCN(C(=O)N2CCN(C)CC2)CC1` [Example 128, [4-[[3-[4-(difluoromethoxy)phenyl]imidazo[1,2-a]pyrazin-8-yl]amino]-2-methyl-phenyl]-[4-(4-methylpiperazine-1-carbonyl)piperazin-1-yl]methanone formate] is 190 nM; for `COc1ccc(-c2cnc3c(Nc4ccc(C(=O)N5CCC(C(=O)NC6CNC6)CC5)c(C)c4)nccn23)cc1F` [Example 57, N-(azetidin-3-yl)-1-(4-((3-(3-fluoro-4-methoxyphenyl)imidazo[1,2-a]pyrazin-8-yl)amino)-2-methylbenzoyl)piperidine-4-carboxamide 2,2,2-trifluoroacetate] it is 250 nM. With `COc1ccc(-c2cnc3c(Nc4ccc(C(=O)N5CCN(C(=O)[C@@H]6CCNC6)CC5)c(C)c4)nccn23)c(Cl)c1F` [Example 474, [4-[[3-(2-chloro-3-fluoro-4-methoxyphenyl)imidazo[1,2-a]pyrazin-8-yl]amino]-2-methylphenyl]-[4-[(3R)-pyrrolidine-3-carbonyl]piperazin-1-yl]methanone; formic acid], the IC90 under setting [2] amounted to 94 nM. On to `CCc1cc(Nc2nccn3c(-c4ccc(OC(F)F)cc4)cnc23)ccc1C(=O)N1CCC(CN)CC1` [Example 363, [4-(aminomethyl)piperidin-1-yl]-[4-[[3-[4-(difluoromethoxy)phenyl]imi-dazo[1,2-a]pyrazin-8-yl]amino]-2-ethylphenyl]methanone; hydro-chloride], for which the IC90 under setting [2] was 520 nM. Consider `COc1ccc(-c2cnc3c(Nc4ccc(C(=O)N5CCN(C(=O)[C@H]6CCNC[C@@H]6O)CC5)c(C)c4)nccn23)c(F)c1F` [Example 192, [4-[[3-(2,3-difluoro-4-methoxy-phenyl)imidazo[1,2-a]pyrazin-8-yl]amino]-2-methyl-phenyl]-[4-[(3R,4S)-3-hydroxypiperidine-4-carbonyl]piperazin-1-yl]methanone hydrochloride], for which the IC90 under setting [1] is 290 nM.

The record behind these values is patent US20230011869A1 (Hoffmann-La Roche Inc., priority 2018, published 2023).
